Assay results taken from patent US9587002B2, “Sequence of nucleotides and peptides GSE 24.2 of dyskerin, which can induce telomerase activity, method for obtaining same, therapeutic compositions and applications thereof” (CONSEJO SUPERIOR DE INVESTIGACIONES CIENTIFICAS, priority 2005, dated 2017).

B1: Trub II: fragment of GSE 24.2 containing the Trub II domain (SEQ ID NO13, peptide SEQ ID NO14) (nucleic acid, listed as Homo sapiens)
DNA: CACAGTGGTACTCTGGATCCCAAGGTGACTGGTTGTTTAATCGTGTGCATAGAACGAGCCACTCGCTTGGTGAAG
modifications: expressed or natural sequence

Tests used:
hTERT promoter [1] = assay: hTERT-luc reporter (luciferase) assay in 293T cells; assay type: cell-based, human; conditions: 293T cells transiently transfected with construct vs empty vector; hTERT-luc, 24 hours
Protocol: FIG. 8.—Activity of the hTERT promoter in the 293T cell lines: pLNCX and 24.2 and in 293T cells transiently transfected with the pLNCX-24.2 construct and the pLNCX empty plasmid. A) Both the pLNCX and the 24.2 cells were transiently transfected with 0.25 μg of the hTERT-luc reporter vector. The cells were seeded in 60-mm plates. After 24 hours of transfection, the cells were lysed and the luciferase activity of 10 μg of total protein was quantified. As a transfection control, the cells were co-transfected with a reporter vector, CMV-Renilla. B) The 293T cells were transfected with the pLNCX vector and the 24.2 plasmid (5 μg), and both were co-transfected with 0.25 μg of the hTERT-luc reporter vector. After seeding the cells as in A, they were transfected with pLNCX and 24.2, and co-transfected with the hTERT-luc reporter vector; subsequently, they were treated as in A. As a transfection control, the CMV-Renilla reporter vector was used. The data correspond to the ratio of relative units of luciferase with respect to non-transfected cells. Each point represents the mean±the standard deviation obtained from 3 independent experiments. C) The 293T cells were transfected with the different GSE 24.4, DSK, TRUB I, TRUB II constructs and the pLNCX empty plasmid (5 μg), and co-transfected with 0.25 μg of the hTERT-luc reporter vector. The cells were seeded in 60-mm plates; after 24 hours of transfection, the cells were lysed and the luciferase activity of 10 μg of total protein was quantified. As a transfection control, the cells were co-transfected with a CMV-Renilla reporter vector. The data correspond to the ratio of relative units of luciferase with respect to non-transfected cells. Each point represents the mean±the standard deviation obtained from 3 independent experiments.
FIG. 9.—Activity of the hTERT promoter following treatment with cisplatin. A) Both the pLNCX cell line and the 24.2 cell line were transiently transfected with 0.25 μg of the hTERTIuc reporter vector. After 24 hours of transfection, they were treated with 3 μg/ml of cisplatin for 8 hours. The cells were seeded in 60-mm plates; after 24 hours of transfection and following treatment with cDDP, the cells were lysed and the luciferase activity of 10 μg of total protein was quantified. As a transfection control, the cells were co-transfected with a CMV-Renilla reporter vector. B) 293T cells which, after being transiently transfected with pLNCX and 24.2, were co-transfected with 0.25 μg of the hTERT-luc reporter vector and treated as in A. After seeding the cells as in A, they were transfected with pLNCX and 24.2, and co-transfected with the hTERT-luc reporter vector; subsequently, they were treated as in A. As a transfection control, the CMV-Renilla reporter vector was used. The data correspond to the ratio of relative units of luciferase with respect to non-transfected cells. Each point represents the mean±the standard deviation obtained from 3 independent experiments.
A) The 293T cells were co-transfected with different constructs (10 μg/DNA per million cells) and the hTERT-luc reporter (1 μg per million cells). The specified cell lines were co-transfected with the hTERT-luc reporter and different quantities of the Mad/myc expression vector. (B) The specified cell lines were co-transfected with the HIV-luc reporter and with different quantities of the Mad/myc expression vector. After 24 h of transfection, the cells were stimulated with 50 ng/ml of TNF-α for 6 hours and the luciferase activity was analysed as described above. CMV-Renilla (0.1 μg/ml per million cells) was used as a control for the transfection efficiency. The data represent the mean of two experiments performed in quadruplicate.
The pseudouridine synthase TRUB domain of dyskerin comprises two structural subdomains: the Trub I and II motifs (Zucchini et al., 2003). These two domains are critical to maintain the global protein structure of dyskerin. […]

hTERT promoter [2] = assay: hTERT-luc reporter assay in VA13 cells; assay type: cell-based; conditions: co-transfection with hTERT-luc, 24 h
Protocol: FIG. 10.—Telomerase activity and expression levels of hTERT and hTR in the cells of patients with dyskeratosis congenita and in VA13 cells transiently transfected with the 24.2 plasmid or the pLNCX empty vector. A) Telomerase activity measured by means of the TRAP assay in the cells of patients with dyskeratosis congenita (DC-1, DC-2 and DC-3) and in the carrier parent (DC-C) following electroporation of 45 μg of the pLNCX empty plasmid (−) or the pLNCX 24.2 vector (+) by 15 million cells. B) RT-PCR of the RNA from cells of one of the patients with dyskeratosis congenita, DC3 transfected with the empty vector and DC3 transfected with the 24.2 plasmid, using oligos specific for hTERT and hTR. As a starting RNA control, oligos for the amplification of GAPDH were used. C) Telomerase activity in VA13 cells. […] 24 hours later, the telomerase activity was analysed as described above, using dilutions of the protein extracts from each transfection. […] RNA levels were detected as described above. […] After 24 h of transfection, the luciferase activity was analyzed as described above. […]
Luciferase assay. The transcriptional regulation of hTERT was measured by means of the Luciferase reporter gene, preceded by a 3,402-pb sequence of the hTERT promoter. […] The cell lysates were centrifuged and the expression of luciferase was quantified with 10 μg of protein from the supernatant, using a Berthold luminometer. […]

293T cells = assay: Cell viability of 293T cell lines treated with cisplatin (crystal violet); assay type: cell-based, human; conditions: 293T cells stably expressing the construct vs empty vector pLNCX; cisplatin 0-100 μg/ml, 72 hours
Protocol: FIG. 2.—Cell viability and activation of the JNK and p38 death pathways in 293T cell lines: pLNCX and 24.2, treated with cisplatin. A) Cell viability. After seeding the 293T cells: expressing the empty vector (pLNCX) and GSE 24.2 (24.2) in 24-well plates, they were incubated with concentrations between 0-100 μg/ml of cisplatin. The cell viability was measured by means of the crystal violet technique after 72 hours of exposure to the drug. The data represent the mean of two experiments performed in quadruplicate. B) Activation kinetics. Subsequently, the activation of JNK and p38 was studied using antibodies that specifically recognise the active forms. As a load control, the levels of JNK-1 were detected.
FIG. 4.—Viability of the 293T cell lines: pLNCX, 24.2, DSK5′ and DSK treated with cisplatin. The cell lines described above (pLNCX and 24.2), the DSK 5′ cell line, which expresses a fragment of dyskerin described in the preceding figure, and a fourth one that overexpresses the complete cDNA of dyskerin (DSK) have been used. The viability was analyzed as shown in FIG. 1 A. The data represent the mean of two experiments performed in quadruplicate. […]
Growth curves. […] The number of cells was determined by estimating the absorbance at 595 nm. […]

Molecule	activity of the hTERT promoter, transient expression (hTERT promoter [1])	activity of the hTERT promoter in VA13 cells (hTERT promoter [2])	cell viability in response to cisplatin (293T cells)
Trub I: fragment of GSE 24.2 containing the Trub I domain (SEQ ID NO11, peptide SEQ ID NO12) (DNA GGTTTCATTAATCTTGACAAGCCCTCTAACCCCTCTTCCCATGAGGTGGTAGCC; expressed or natural sequence; listed as Homo sapiens)	act by activating the expression of the hTERT promoter	activated the hTERT promoter	
DSK 5′: construct containing the first 500 nucleotides of human dyskerin, cloned in pLNCX [reference compound]			do not have any activity whatsoever
B1	act by activating the expression of the hTERT promoter		
